Results: patent publication US20220106289A1, “NLRP3 INHIBITORS” (INFLAZOME LIMITED, priority 2018, published 2022)
pIC50: −log10 of the molar value. Where a name gives a salt, the structure may show the parent alone.

Columns and labels:
[1] = biological target: T1, NLRP3 (Homo sapiens, UniProt Q96P20); assay: Human whole blood IL-1β release assay (LPS + nigericin, AlphaLisa); type: cell-based; design: Human whole blood in Li-heparin tubes was obtained from healthy donors; from tissue; host or cells: human whole blood from healthy donors; details: NLRP3 inhibitory activity, 1 μg/ml LPS, 10 μM nigericin, read-out: HWB IC50
T1 sequence (Q96P20 whole entry): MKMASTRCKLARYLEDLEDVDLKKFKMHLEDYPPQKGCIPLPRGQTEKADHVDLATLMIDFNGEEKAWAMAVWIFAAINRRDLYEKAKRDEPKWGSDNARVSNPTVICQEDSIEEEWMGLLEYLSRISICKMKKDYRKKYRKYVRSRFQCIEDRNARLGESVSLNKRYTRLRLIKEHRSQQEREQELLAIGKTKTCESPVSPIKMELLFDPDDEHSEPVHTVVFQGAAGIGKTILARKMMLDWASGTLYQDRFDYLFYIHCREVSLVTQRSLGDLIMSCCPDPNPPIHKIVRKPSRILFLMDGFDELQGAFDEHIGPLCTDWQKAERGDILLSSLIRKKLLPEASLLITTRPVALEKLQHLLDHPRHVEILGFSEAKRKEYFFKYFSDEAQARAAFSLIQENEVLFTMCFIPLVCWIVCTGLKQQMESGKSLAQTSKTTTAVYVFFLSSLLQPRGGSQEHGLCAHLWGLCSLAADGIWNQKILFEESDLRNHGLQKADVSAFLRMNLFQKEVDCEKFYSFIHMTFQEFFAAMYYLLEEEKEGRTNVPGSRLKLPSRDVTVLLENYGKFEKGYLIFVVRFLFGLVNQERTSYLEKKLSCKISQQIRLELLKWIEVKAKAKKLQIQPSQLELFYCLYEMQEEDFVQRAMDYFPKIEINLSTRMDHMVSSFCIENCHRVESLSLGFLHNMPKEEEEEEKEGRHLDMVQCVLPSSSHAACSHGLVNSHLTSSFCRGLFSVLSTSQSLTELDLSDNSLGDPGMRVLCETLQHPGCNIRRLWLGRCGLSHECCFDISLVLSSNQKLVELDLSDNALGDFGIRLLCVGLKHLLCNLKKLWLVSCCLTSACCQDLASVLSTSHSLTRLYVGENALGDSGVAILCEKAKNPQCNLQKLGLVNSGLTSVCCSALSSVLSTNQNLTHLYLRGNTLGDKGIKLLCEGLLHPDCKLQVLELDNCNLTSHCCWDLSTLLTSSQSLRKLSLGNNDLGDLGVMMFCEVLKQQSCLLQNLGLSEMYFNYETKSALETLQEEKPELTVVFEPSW
Method: For systemic delivery, the ability to inhibit NLRP3 when the compounds are present within the bloodstream is of great importance. For this reason, the NLRP3 inhibitory activity of a number of compounds in human whole blood was investigated in accordance with the following protocol. Human whole blood in Li-heparin tubes was obtained from healthy donors from a volunteer donor panel. • 1. […] Incubate for 3 hrs at 37° C., 5% CO2 • 4. Add 10 μl nigericin (Sigma #N7143) (10 μM FAC) to all wells • 5. Incubate for 1 hr at 37° C., 5% CO2 • 6. At the end of the incubation period, spin plates at 300×g for 5 mins to pellet cells and remove 20 μl of supernatant and add to 96-well v-bottom plates for IL-1β analysis (note: these plates containing the supernatants can be stored at -80° C. to be analysed at a later date) • 7. IL-1β was measured according to the manufacturer protocol (Perkin Elmer-AlphaLisa IL-1 Kit A[…]-5000) • 8.

[2] = biological target: T1, NLRP3; assay: THP-1 cells pyroptosis assay (LPS + nigericin, resazurin read-out); type: cell-based; design: Seed THP-1 cells (25,000 cells/well) containing 1.0 μg/ml LPS; host or cells: THP-1 cells; details: NLRP3 inhibitory activity, 1 μg/ml LPS, 5 μM nigericin
Method: The cells were routinely passaged and grown to confluency (˜10^6 cells/ml). On the day of the experiment, THP-1 cells were harvested and resuspended into RPMI medium (without FBS). The cells were then counted and viability (>90%) checked by Trypan blue (Sigma #T8154). […] To this diluted cell solution was added LPS (Sigma #L4524) to give a 1 μg/ml Final Assay Concentration (FAC). 40 μl of the final preparation was aliquoted into each well of a 96-well plate. The plate thus prepared was used for compound screening. The following method step-by-step assay was followed for compound screening. • 1. […] Incubate for 3 hrs at 37° C., 5% CO2 • 4. Add 5 μl nigericin (Sigma #N7143) (FAC 5 μM) to all wells • 5. Incubate for 1 hr at 37° C., 5% CO2 • 6. At the end of the incubation period, spin plates at 300×g for 3 mins and remove supernatant • 7. Then add 50 μl of resazurin (Sigma #R7017) (FAC 100 μM resazurin in RPMI medium without FBS) and incubate plates for a further 1-2 hrs at 37° C. and 5% CO2 • 8.

SMILES	pIC50 [1]	pIC50 [2]
Cc1cc(CN(C)C)cc(S(=O)(=O)NC(=O)Nc2c3c(cc4c2CCC4)CCC3)c1 [Example 57, 3-((Dimethylamino)methyl)-N-((1,2,3,5,6,7-hexahydro-s-indacen-4-yl)carbamoyl)-5-methylbenzenesulfonamide, sodium salt]	5.30 to 6.00	> 6.60
CC(C)n1nc(S(=O)(=O)NC(=O)Nc2c3c(cc4c2CCC4)CCC3)cc1C(C)(C)O [Example 49, N-((1,2,3,5,6,7-Hexahydro-s-indacen-4-yl)carbamoyl)-5-(2-hydroxypropan-2-yl)-1-isopropyl-1H-pyrazole-3-sulfonamide]	6.00 to 6.30	> 6.60
CC(C)n1ccc(S(=O)(=O)NC(=O)Nc2cc(Br)ccc2Sc2nnnn2C)n1 [Example 28, N-((5-Bromo-2-((1-methyl-1H-tetrazol-5-yl)thio)phenyl)carbamoyl)-1-isopropyl-1H-pyrazole-3-sulfonamide]	5.00 to 5.30	5.30 to 6.00
[2H]C([2H])([2H])N(CCn1ccc(S(=O)(=O)NC(=O)Nc2c3c(cc4c2CCC4)CCC3)n1)C([2H])([2H])[2H] [Example 12, 1-(2-(Bis(methyl-d3)amino)ethyl)-N-((1,2,3,5,6,7-hexahydro-s-indacen-4-yl)carbamoyl)-1H-pyrazole-3-sulfonamide, potassium salt]	6.00 to 6.30	> 6.60
CC(C)c1cc(F)cc(C(C)C)c1NC(=O)NS(=O)(=O)c1ccn(C(C)C)n1 [Example 77, N-((4-Fluoro-2,6-diisopropylphenyl)carbamoyl)-1-isopropyl-1H-pyrazole-3-sulfonamide, sodium salt]	5.00 to 5.30	5.30 to 6.00
CC(C)c1cc(Cl)cc(C(C)C)c1NC(=O)NS(=O)(=O)c1cnn(CC(F)(F)F)c1 [Example 40, N-((4-Chloro-2,6-diisopropylphenyl)carbamoyl)-1-(2,2,2-trifluoroethyl)-1H-pyrazole-4-sulfonamide]	5.30 to 6.00	6.30 to 6.60
Cc1cc(C(C)(C)O)ccc1S(=O)(=O)NC(=O)Cc1c(C(C)C)cc(F)cc1C(C)C [Example 2, 2-(4-Fluoro-2,6-diisopropylphenyl)-N-((4-(2-hydroxypropan-2-yl)-2-methylphenyl)sulfonyl)acetamide, potassium salt]	< 5.00	6.30 to 6.60
CC(C)n1nc(S(=O)(=O)NC(=O)Nc2c3c(cc4c2CCC4)CCC3)cc1F [Example 62, 5-Fluoro-N-((1,2,3,5,6,7-hexahydro-s-indacen-4-yl)carbamoyl)-1-isopropyl-1H-pyrazole-3-sulfonamide, sodium salt]	< 5.00	> 6.60
C#CCCC1(CCn2ccc(S(=O)(=O)NC(=O)Nc3c4c(cc5c3CCC5)CCC4)n2)N=N1 [Example 16, 1-(2-(3-(But-3-yn-1-yl)-3H-diazirin-3-yl)ethyl)-N-((1,2,3,5,6,7-hexahydro-s-indacen-4-yl)carbamoyl)-1H-pyrazole-3-sulfonamide, potassium salt]	5.00 to 5.30	> 6.60
CC(O)c1cc(S(=O)(=O)NC(=O)Nc2c3c(cc4c2CCC4)CCC3)nn1C(C)C (stereo not shown) [Example 54, N-((1,2,3,5,6,7-Hexahydro-s-indacen-4-yl)carbamoyl)-5-(1-hydroxyethyl)-1-isopropyl-1H-pyrazole-3-sulfonamide]	6.00 to 6.30	> 6.60
CC(C)n1ncc(S(=O)(=O)NC(=O)Nc2c3c(cc4c2CCC4)CCC3)n1 [Example 48, N-((1,2,3,5,6,7-Hexahydro-s-indacen-4-yl)carbamoyl)-2-isopropyl-2H-1,2,3-triazole-4-sulfonamide]	5.30 to 6.00	> 6.60
NC/C(=C\F)COc1ccc(S(=O)(=O)NC(=O)Nc2c3c(cc4c2CCC4)CCC3)cc1 [Example 17, 4-((2-(Aminomethyl)-3-fluoroallyl)oxy)-N-((1,2,3,5,6,7-hexahydro-s-indacen-4-yl)carbamoyl)benzenesulfonamide, 2,2,2-trifluoroacetate salt]	5.30 to 6.00	6.30 to 6.60
CC(C)(CN1CCC1)n1ccc(S(=O)(=O)NC(=O)Nc2c3c(cc4c2CCC4)CCC3)n1 [Example 56, 1-(1-(Azetidin-1-yl)-2-methylpropan-2-yl)-N-((1,2,3,5,6,7-hexahydro-s-indacen-4-yl)carbamoyl)-1H-pyrazole-3-sulfonamide]	6.30 to 6.60	> 6.60
CN(C)CC1(n2ccc(S(=O)(=O)NC(=O)Nc3c4c(cc5c3CCC5)CCC4)n2)CCC1 [Example 60, 1-(1-((Dimethylamino)methyl)cyclobutyl)-N-((1,2,3,5,6,7-hexahydro-s-indacen-4-yl)carbamoyl)-1H-pyrazole-3-sulfonamide]	> 6.60	> 6.60
Cn1nc(S(=O)(=O)NC(=O)Nc2c3c(cc4c2CCC4)CCC3)cc1CO [Example 84, N-((1,2,3,5,6,7-Hexahydro-s-indacen-4-yl)carbamoyl)-5-(hydroxymethyl)-1-methyl-1H-pyrazole-3-sulfonamide]	6.00 to 6.30	6.30 to 6.60
COC(C)(C)c1cc(S(=O)(=O)NC(=O)Nc2c(C(C)C)cc(F)cc2C(C)C)nn1C [Example 82, N-((4-Fluoro-2,6-diisopropylphenyl)carbamoyl)-5-(2-methoxypropan-2-yl)-1-methyl-1H-pyrazole-3-sulfonamide]	6.00 to 6.30	6.30 to 6.60
CC(C)n1ccc(S(=O)(=O)NC(=O)Nc2c3c(cc4c2CCC4=O)CCC3)n1 [Example 31, 1-isopropyl-N-((1-oxo-1,2,3,5,6,7-hexahydro-s-indacen-4-yl)carbamoyl)-1H-pyrazole-3-sulfonamide, sodium salt]	5.00 to 5.30	5.30 to 6.00
CC(C)c1cc(C#N)cc(C(C)C)c1NC(=O)NS(=O)(=O)c1ccn(C(C)C)n1 [Example 72, N-((4-Cyano-2,6-diisopropylphenyl)carbamoyl)-1-isopropyl-1H-pyrazole-3-sulfonamide]	5.00 to 5.30	5.30 to 6.00
CC(C)n1ccc(S(=O)(=O)NC(=O)Nc2c3c(c(F)c4c2CCC4)CCC3)n1 [Example 61, N-((8-Fluoro-1,2,3,5,6,7-hexahydro-s-indacen-4-yl)carbamoyl)-1-isopropyl-1H-pyrazole-3-sulfonamide, sodium salt]	6.00 to 6.30	> 6.60
CC(C)c1cc(F)cc2c1C(C(=O)NS(=O)(=O)c1ccn(C3CC3)n1)CCC2(C)C (stereo not shown) [Example 6, N-((1-Cyclopropyl-1H-pyrazol-3-yl)sulfonyl)-6-fluoro-8-isopropyl-4,4-dimethyl-1,2,3,4-tetrahydronaphthalene-1-carboxamide]	5.00 to 5.30	5.30 to 6.00
CC(C)n1nncc1S(=O)(=O)NC(=O)Nc1c2c(cc3c1CCC3)CCC2 [Example 47, N-((1,2,3,5,6,7-Hexahydro-s-indacen-4-yl)carbamoyl)-1-isopropyl-1H-1,2,3-triazole-5-sulfonamide]	5.30 to 6.00	> 6.60
CCn1cc(S(=O)(=O)NC(=O)Nc2c3c(cc4c2CCC4)CCC3)nn1 [Example 19, 1-Ethyl-N-((1,2,3,5,6,7-hexahydro-s-indacen-4-yl)carbamoyl)-1H-1,2,3-triazole-4-sulfonamide, potassium salt]	6.00 to 6.30	6.30 to 6.60
CC(C)c1cc(Cl)c2c(c1NC(=O)NS(=O)(=O)c1ccn(C(C)C)n1)CCC2 [Example 34, N-((7-Chloro-5-isopropyl-2,3-dihydro-1H-inden-4-yl)carbamoyl)-1-isopropyl-1H-pyrazole-3-sulfonamide]	5.00 to 5.30	6.30 to 6.60
O=C(Nc1c2c(cc3c1CCC3)C=CC2)NS(=O)(=O)c1cc[nH]n1 [Example 14, N-((1,2,3,5-Tetrahydro-s-indacen-4-yl)carbamoyl)-1H-pyrazole-3-sulfonamide, potassium salt]	5.00 to 5.30	6.00 to 6.30
O=C(Nc1c2c(cc3c1CCC3)CCC2)NS(=O)(=O)c1ccn(C2CCC2)n1 [Example 59, 1-Cyclobutyl-N-((1,2,3,5,6,7-hexahydro-s-indacen-4-yl)carbamoyl)-1H-pyrazole-3-sulfonamide]	5.30 to 6.00	> 6.60
COC(C)c1cc(S(=O)(=O)NC(=O)Nc2c3c(cc4c2CCC4)CCC3)nn1C (stereo not shown) [Example 53, N-((1,2,3,5,6,7-Hexahydro-s-indacen-4-yl)carbamoyl)-5-(1-methoxyethyl)-1-methyl-1H-pyrazole-3-sulfonamide]	6.00 to 6.30	> 6.60
